A short description of data set [1]: Gel formation / sol-gel transition by vial inverting method. The note with it: for CGC: Table 5, critical gelation concentration; for Time at room temperature to convert again into a sol state: after gelation at 37° C., regardless of the concentration. It is filed as physicochemical. As to the method: In a glass bottle of 2 mL (diameter 10 mm) with a screw cap, different compounds with different concentrations were weighed to perform the gelation. A sodium hydroxide solution was added to the suspension in order to adjust the pH value, and vortex and treatment of the sonication were alternately used until a clear compound solution was obtained. Polyethylene glycols having different molecular weights such as 300 g/mol, 600 g/mol, 1000 g/mol, 1500 g/mol, 2000 g/mol, and 3000 g/mol, etc. were also dissolved in the deionized water in order to obtain the polyethylene glycol solution, and the desired concentrations were further controlled. After the polyethylene glycols were completely dissolved, the polyethylene glycol solution was then mixed with the compound solution in order to obtain a compound/PEG solution. By adding hydrochloric acid dropwise, the pH value of the compound/PEG solution was adjusted to a neutral pH value of 7.0-7.4.
Gel formation was determined by a vial inverting method. After the equilibrium at room temperature, a glass bottle with the sample was immersed into a water bath of 37° C. in equilibrium or in an incubator of 37° C. for 30 minutes. After flipping the glass bottle, the sol-gel transition was determined. If the sample without floating was observed within 1 minute, the sample was considered as a gel. […] Each of the temperature data point represented an average temperature of three measurements. At a physiologically relevant temperature of 37° C., the gelation time as a function of the concentration of the block copolymer was measured in the water bath of 37° C.

A short description of data set [2]: Hydrogel degradation in PBS at 37° C. It is filed as physicochemical. The following applies: on the seventh day, PBS pH 7.4, 37° C. On the procedure:
Hydrogel degradation was performed in a phosphate buffered solution (PBS) at 37° C. with 5% of CO2. In a 4 mL glass bottle, various 0.3 mL hydrogels were prepared, and 3 mL PBS was added to each of the glass bottles having the hydrogel. At some specific data points, the PBS was removed. The hydrogel was freeze-dried by the freeze-drying method, and the hydrogel degradation rate was calculated according to the following Formula (1),
[formula] wherein W (%) represented the hydrogel degradation rate, Wi represented the initial weight of the hydrogel at day 0, and Wd represented the dry weight of the hydrogel at day of a specific number. Cell Viability Test
In some embodiments of the invention, accordingly, with the remaining conditions the same, the stability of the thermosensitive hydrogel was tested by immersing the samples into a PBS with the pH value of 7.4 at 37° C., and the result thereof was shown in FIG. 10. FIG. 10 was a diagram showing specific degradation percentage over time of the 5F-FF, 5F-FF/PEG300, 5F-FF/PEG600, 5F-FF/PEG1000, 5F-FF/PEG1500, 5F-FF/PEG2000, and 5F-FF/PEG3000 alone in the PBS according to some embodiments of the invention.

Data set [3] in a line: Cell viability test (MTT assay). It is filed as cell-based. The note with it: human, hMSC (3A6) cells, read-out: Survival rate. As to the method:
The biocompatibilities of different peptide molecules were measured by a cell viability test (MTT assay). hMSC (3A6) cells were seeded in a 24-well plate with a density of 50,000 cells in each well, and the hMSC (3A6) cells were cultured for 24 hours, wherein the 24-well plate comprises a culture medium (DMEM) of 0.5 mL, and the DMEM comprises 10% FBS and 1% penicillin. When seeded in the cells, each of the wells was added with the compounds of different concentrations (0.5 and 5 wt %). After 24 and 48 hours, the original culture medium was replaced by a fresh culture medium, wherein the fresh culture medium was supplemented with a MTT reagent of 0.5 mL (4 mg/mL). After another 4 hours, the culture medium containing the MTT reagent was removed, and DMSO (0.5 mL per well) was then added in order to dissolve formazan crystals. Each of the 24-well plate was transferred to a 96-well plate. The optical density of the cells was measured at 595 nm by a light absorption plate reader (Sunrise, DV990/BV4 GDV Programmable MPT reader). The cells without treated by the compounds were used as the control group. The cell viability percentage, that is, viability (%), of the cells was calculated according to the following Formula (2).
[formula] wherein ODsample represented the optical density of the sample, and ODcontrol represented the optical density of the control group.
In some embodiments of the invention, a cell viability test (MTT assay) was used for a colorimetric assay to analyze the biocompatibilities of the samples. In detail, a 0.5 wt % 5F-FF, a 0.5 wt %: 4.5 wt % 5F-FF/PEG1500, a 0.5 wt %: 4.5 wt % 5F-FF/PEG2000, and a 0.5 wt %: 4.5 wt % 5F-FF/PEG3000 (hydrogels under neutral conditions), and the immortalized human mesenchymal stem cells (hMSC, 3a6) was selected for testing, wherein the results were shown in FIG. 11. FIG. 11 was a diagram showing cell viability of cells treated with 0.5 wt % 5F-FF, 0.5 wt %: 4.5 wt % 5F-FF/PEG1500, 0.5 wt %: 4.5 wt % 5F-FF/PEG2000 and 0.5 wt %: 4.5 wt % 5F-FF/PEG3000 according to some embodiments of the invention.
On the technique in general: Tetrazolium dyes change colour on reduction, which living cells bring about.

Residues, ends and D or L forms follow the SMILES beside them. *: point of attachment. Phenylacetyl(2,3,4,5,6-F5) = O=C(Cc1c(F)c(F)c(F)c(F)c1F)*

Compound `O=C(Cc1ccc(F)cc1)N[C@@H](Cc1ccccc1)C(=O)N[C@@H](Cc1ccccc1)C(=O)O` [Sample 1F-FF] had a CGC in data set [1] (pH 7.0) of 1 wt %. The “State at 37° C.” value in data set [1] (Table 6, 1F-FF with PEG of different molecular weights, pH 7.0) is “Gel”. In addition, the “Detailed description of the sample” value in data set [1] (Table 6, after cooling at 0° C.) is reported as “Still hydrosol”. The “State at 0° C. (Surrounded by ice cubes)” value in data set [1] (Table 6, gel-sol behavior, pH 7.0) was “Gel”.
`O=C(Cc1c(F)cc(F)cc1F)N[C@@H](Cc1ccccc1)C(=O)N[C@@H](Cc1ccccc1)C(=O)O` [Sample 3F-FF]: the CGC in data set [1] (pH 7.0) was 0.5 wt %.
The compound `O=C(Cc1c(F)c(F)c(F)c(F)c1F)N[C@@H](Cc1ccccc1)C(=O)N[C@@H](Cc1ccccc1)C(=O)O` [Sample 5F-FF, 2,3,4,5,6-fluorobenzyl-diphenylalanine] displayed a Degradation percentage in data set [2] of 35.75%. Moreover, the “Time Tsol-gel” value in data set [1] (5F-FF with PEG of different molecular weights, thermosensitive gelation at 37° C., pH 7.0) is “Gel”. In addition, in data set [1] (5F-FF, Table 2), the “CGC (critical gelation concentration)” value was found to be 0.5 wt %. Besides, the viability at 24 h, 0.5 wt % in data set [3] (day 1, hMSC (3A6), hydrogels under neutral conditions) was found to be 84%. Further, the viability at 48 h, 0.5 wt % in data set [3] (day 2, hMSC (3A6)) came to 88.6%. Also, the viability at 72 h, 0.5 wt % in data set [3] (day 3, hMSC (3A6)) was determined as 68.2%. For the same compound, the viability at 120 h, 0.5 wt % in data set [3] (day 5, hMSC (3A6)) stood at 73.3%. Moreover, the viability at 168 h, 0.5 wt % in data set [3] (day 7, hMSC (3A6)) was determined as 84%.
Consider `CC(NC(=O)C(Cc1cnc[nH]1)NC(=O)CNC(=O)C(Cc1ccccc1)NC(=O)C(Cc1ccccc1)NC(=O)Cc1c(F)c(F)c(F)c(F)c1F)C(=O)NC(C(=O)NC(CC(=O)O)C(=O)O)C(C)C` (stereo not drawn) [Sample 5F-FFGHAVD] ({Phenylacetyl(2,3,4,5,6-F5)}-FFGHAVD-OH; configuration not given here), for which, in data set [1], the “Time at room temperature to convert again into a sol state” value amounted to 20 min.
Consider `N=C(N)NCCCC(NC(=O)C(Cc1ccccc1)NC(=O)C(Cc1ccccc1)NC(=O)Cc1c(F)c(F)c(F)c(F)c1F)C(=O)NCC(=O)NC(CC(=O)O)C(=O)O` (stereo not drawn) [Sample 5F-FFRGD] ({Phenylacetyl(2,3,4,5,6-F5)}-FFRGD-OH; configuration not given here), for which, in data set [1], the “Time at room temperature to convert again into a sol state” value was 20 min.

The record behind these values is patent US11690935B2, “Thermosensitive peptide hydrogel” (NATIONAL CHIAO TUNG UNIVERSITY, priority 2020, dated 2023).
